Data on 1 compound can be found in patent publication US11572590B2, “Methods for evaluating tumor cell spheroids using 3D microfluidic cell culture device” (Dana-Farber Cancer Institute, Inc., priority 2017, dated 2023).

Assay [1] concerns the target T1, off-target kinases (Homo sapiens, UniProt O15530).
T1 sequence (O15530 1-556): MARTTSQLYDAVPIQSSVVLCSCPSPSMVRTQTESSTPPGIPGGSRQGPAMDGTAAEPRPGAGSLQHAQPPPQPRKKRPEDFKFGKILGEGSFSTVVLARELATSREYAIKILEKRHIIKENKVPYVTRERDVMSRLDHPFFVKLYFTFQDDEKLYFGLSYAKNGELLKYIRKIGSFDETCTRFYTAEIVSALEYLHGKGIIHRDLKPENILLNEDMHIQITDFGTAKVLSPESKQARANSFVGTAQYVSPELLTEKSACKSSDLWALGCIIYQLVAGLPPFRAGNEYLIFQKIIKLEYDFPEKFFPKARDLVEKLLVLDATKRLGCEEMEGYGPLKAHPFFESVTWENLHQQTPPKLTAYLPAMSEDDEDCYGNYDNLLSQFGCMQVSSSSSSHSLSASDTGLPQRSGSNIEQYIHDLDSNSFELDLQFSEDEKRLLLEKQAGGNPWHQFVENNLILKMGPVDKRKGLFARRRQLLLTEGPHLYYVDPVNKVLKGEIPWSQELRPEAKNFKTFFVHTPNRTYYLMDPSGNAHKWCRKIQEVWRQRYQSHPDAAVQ
Briefly: SelectScreen Kinase Profiling, single point inhibition and IC50 for off-target kinases. Type of assay: biochemical. As to conditions: ZLYTE.

Assay [2] addresses T2, off-target kinases (Homo sapiens, UniProt P51817).
T2 sequence (P51817 1-358): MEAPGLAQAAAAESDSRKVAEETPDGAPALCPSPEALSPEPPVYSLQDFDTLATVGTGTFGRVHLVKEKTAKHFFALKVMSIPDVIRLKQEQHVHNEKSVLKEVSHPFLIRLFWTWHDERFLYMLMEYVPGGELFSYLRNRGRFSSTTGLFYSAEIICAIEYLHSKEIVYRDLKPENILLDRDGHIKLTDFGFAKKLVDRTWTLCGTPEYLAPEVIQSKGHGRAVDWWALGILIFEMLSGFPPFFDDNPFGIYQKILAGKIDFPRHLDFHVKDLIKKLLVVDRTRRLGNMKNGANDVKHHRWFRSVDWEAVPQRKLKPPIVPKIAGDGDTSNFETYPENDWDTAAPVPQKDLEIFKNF
The description is as above. The class given is biochemical. As to conditions: PRKX, ZLYTE, ATP Km app.

Like-named read-outs stand apart in the source and are kept apart here.

Consider `N#Cc1cc(-c2ncnc(Nc3ccc(N4CCN(C5COC5)CC4)cc3)n2)ccc1OC1CCOCC1` [Compound 1, 5-(4-((4-(4-(oxetan-3-yl)piperazin-1-yl)phenyl)amino)-1,3,5-triazin-2-yl)-2-((tetrahydro-2H-pyran-4-yl)oxy)benzonitrile], for which the inhibition was 14% at off-target kinases [1] (PDK1, ATP 100, read-out: % Inhibition 1); 16% on off-target kinases [1] (PDK1, ATP 100, read-out: % Inhibition 2); 15% at off-target kinases [1] (PDK1, ATP 100, read-out: % Inhibition Avg); 85% at off-target kinases [1] (PDK1 Direct, ATP Km app, read-out: % Inhibition 1); 74% on off-target kinases [1] (PDK1 Direct, ATP Km app, read-out: % Inhibition 2); 79% at off-target kinases [1] (PDK1 Direct, ATP Km app, read-out: % Inhibition Avg). The inhibition at off-target kinases [2] (read-out: % Inhibition 1) came out at 22%; at off-target kinases [2] (read-out: % Inhibition 2), 30%; on off-target kinases [2] (read-out: % Inhibition Avg), 26%.
